We go through five molecules from paper PMC4822888, “Subtype-Selective Small Molecule Inhibitors Reveal a Fundamental Role for Nav1.7 in Nociceptor Electrogenesis, Axonal Conduction and Presynaptic Release” (PLoS ONE, 2016).

Usually inhibition stands for the drop in the measured response relative to a control, in per cent.

For assay [1], the system named is WT mice. Briefly: Capsaicin flare response in WT mice. The assay is classed as in vivo, mouse. The following applies: 55 mins, vehicle 4930 ± 751.
Assay [2] deals with substantia gelatinosa (SG) neurons of the superficial dorsal horn. The assay can be described thus: cells. The following applies: Mus musculus, Neuron.
Assay [3] relates to mDRG neurons. Briefly: Action potential voltage clamp in mDRG neurons. In kind it is cell-based, mouse. The following applies: 30 nM, p < 0.05. How it is done: Recordings were performed as described in Blair & Bean (2002). Briefly, the internal solution contained (in mM): 140 K-Mes, 13.5 NaCl, 1.6 MgCl2, 0.09 EGTA, 9 HEPES, 0.9 glucose, 14 Tris-creatine PO4, 4 Mg-ATP, and 0.3 Tris-GTP (285–300 mOsm, pH 7.2 with KOH). The ECS was identical to that used for current clamp recordings (see above). Action potentials were recorded in current clamp mode following a 20 ms current injection from a Vm of -70 mV. The same cell was then examined under voltage-clamp (-70 mV) whereby the recorded action potential was used as the voltage command. Series resistance was compensated for by up to 80%.

Assay [4] concerns small diameter mouse DRG neurons. In kind it is cell-based.
Assay [5] addresses mouse Nav1.1 (Mus musculus, UniProt A2APX8). In kind it is cell-based. The following applies: recombinant mouse Nav1.1.
Assay [6] deals with substantia gelatinosa (SG) neurons of the superficial dorsal horn.
Assay [7] deals with small diameter mouse DRG neurons. Briefly: Current clamp of action potentials in small diameter mDRG neurons. The assay is classed as cell-based. As for the experimental part: Dorsal root ganglia (DRG) were isolated and dissociated according to a previously published method. Briefly, DRGs were obtained from all spinal locations and dissociated neurons plated on glass coverslips pre-coated with poly-D-lysine/laminin (BD Biosciences) and left to adhere for 1.5–2 hrs before flooding. Growth media consisted of Lebovitz L-15 Glutamax (Life Technologies) supplemented with 10% FCS, 24 mM NaHCO3 and 38 mM glucose.
Electrophysiological recordings were obtained from stably transfected HEK 293 cells, acutely dissociated mouse DRG neurons, cultured human DRG neurons or mouse superficial dorsal horn neurons using either an Axopatch 200B or […] amplifier (Molecular Devices), or EPC-10 USB amplifier (HEKA). Small diameter mouse DRG neurons were identified as those with a whole cell capacitance between 10–25 pF [17]. For human DRG neurons, patch clamp recordings were obtained from small-to-medium diameter neurons (<60 μm), the majority of which have previously been classified as nociceptors.
ECS contained (in mM) 135 NaCl, 4.7 KCl, 1 CaCl2, 1 MgCl2, 10 HEPES and 10 glucose (300–310 mOsm, pH 7.4 with NaOH). ICS contained (in mM) 140 KCl, 0.5 EGTA, 5 HEPES, and 3 Mg-ATP, (pH 7.3 with KOH, 300–305 mOsm). Single action potentials were evoked from Vm -70 mV by a 20 ms suprathreshold current step (0.1 Hz).

Assay [8] relates to substantia gelatinosa (SG) neurons. Briefly: Current clamp action potentials in SG neurons of mouse spinal cord slices. The assay is classed as cell-based. The following applies: 30 nM.
Assay [9] addresses mouse Nav1.7 (Mus musculus, UniProt Q62205). The assay is classed as cell-based.
The test system of assay [10] is synaptosomes prepared from L4/L5 spinal cord sections. On the set-up: species or system mouse. How it is done: A lumbosacral laminectomy was performed and a segment of lumbar spinal cord was removed into a petri dish containing ice-cold pre-oxygenated aCSF. The dura mater, ventral and dorsal roots and the pia-arachnoid membrane were removed. A small segment of the spinal cord containing only the lumbar region (L4–L5) was dissected free, weighed and placed into ice-cold homogenization buffer composition (mM) 0.32 M sucrose, 10 mM HEPES (pH 7.4, bubbled with 100% O2). Spinal cord tissue was homogenized in buffer using 20 strokes of a glass/glass hand homogenizer. The crude homogenate was diluted with 3 mL of ice-cold homogenization buffer and centrifuged at 1000 x g for 5 mins at 4°C. Synaptosomes were isolated from the supernatant by an additional centrifugation at 20,000 x g for 2 mins at 4°C. The synaptosomal pellet was resuspended in 3 mL of Krebs buffer with composition (in mM): NaCl 118, KCl 2.4, CaCl2 2.4, MgSO4 1.2, KH2PO4 1.2, NaHCO3 25, glucose 10, pH 7.4 (bubbled with 95% O2 and 5% CO2). Protein quantification was performed on the synaptosomal solution using the Bradford colorimetric protein assay and bovine serum albumin standards. Samples were diluted to obtain a final concentration of 0.1 mg mL^-1 for CGRP evaluation and 100 μL samples of the synaptosomal solution was pipetted into eppendorfs. Synaptosomes were incubated at 37°C for 10 mins in the presence of test compounds or DMSO (1 μl total volume). Synaptosomes were stimulated using Veratridine 10 μM in the presence of Thiorphan (10 μM) and incubated for a further 10 mins at 37°C. Samples were then filtered using […] filters and 100 μl of the filtrate was transferred to CGRP ELISA plate (Bertin Pharma) and assayed according to the manufactures instructions.

Like-named read-outs stand apart in the source and are kept apart here.

Chain of mouse Nav1.7 (Q62205 whole entry): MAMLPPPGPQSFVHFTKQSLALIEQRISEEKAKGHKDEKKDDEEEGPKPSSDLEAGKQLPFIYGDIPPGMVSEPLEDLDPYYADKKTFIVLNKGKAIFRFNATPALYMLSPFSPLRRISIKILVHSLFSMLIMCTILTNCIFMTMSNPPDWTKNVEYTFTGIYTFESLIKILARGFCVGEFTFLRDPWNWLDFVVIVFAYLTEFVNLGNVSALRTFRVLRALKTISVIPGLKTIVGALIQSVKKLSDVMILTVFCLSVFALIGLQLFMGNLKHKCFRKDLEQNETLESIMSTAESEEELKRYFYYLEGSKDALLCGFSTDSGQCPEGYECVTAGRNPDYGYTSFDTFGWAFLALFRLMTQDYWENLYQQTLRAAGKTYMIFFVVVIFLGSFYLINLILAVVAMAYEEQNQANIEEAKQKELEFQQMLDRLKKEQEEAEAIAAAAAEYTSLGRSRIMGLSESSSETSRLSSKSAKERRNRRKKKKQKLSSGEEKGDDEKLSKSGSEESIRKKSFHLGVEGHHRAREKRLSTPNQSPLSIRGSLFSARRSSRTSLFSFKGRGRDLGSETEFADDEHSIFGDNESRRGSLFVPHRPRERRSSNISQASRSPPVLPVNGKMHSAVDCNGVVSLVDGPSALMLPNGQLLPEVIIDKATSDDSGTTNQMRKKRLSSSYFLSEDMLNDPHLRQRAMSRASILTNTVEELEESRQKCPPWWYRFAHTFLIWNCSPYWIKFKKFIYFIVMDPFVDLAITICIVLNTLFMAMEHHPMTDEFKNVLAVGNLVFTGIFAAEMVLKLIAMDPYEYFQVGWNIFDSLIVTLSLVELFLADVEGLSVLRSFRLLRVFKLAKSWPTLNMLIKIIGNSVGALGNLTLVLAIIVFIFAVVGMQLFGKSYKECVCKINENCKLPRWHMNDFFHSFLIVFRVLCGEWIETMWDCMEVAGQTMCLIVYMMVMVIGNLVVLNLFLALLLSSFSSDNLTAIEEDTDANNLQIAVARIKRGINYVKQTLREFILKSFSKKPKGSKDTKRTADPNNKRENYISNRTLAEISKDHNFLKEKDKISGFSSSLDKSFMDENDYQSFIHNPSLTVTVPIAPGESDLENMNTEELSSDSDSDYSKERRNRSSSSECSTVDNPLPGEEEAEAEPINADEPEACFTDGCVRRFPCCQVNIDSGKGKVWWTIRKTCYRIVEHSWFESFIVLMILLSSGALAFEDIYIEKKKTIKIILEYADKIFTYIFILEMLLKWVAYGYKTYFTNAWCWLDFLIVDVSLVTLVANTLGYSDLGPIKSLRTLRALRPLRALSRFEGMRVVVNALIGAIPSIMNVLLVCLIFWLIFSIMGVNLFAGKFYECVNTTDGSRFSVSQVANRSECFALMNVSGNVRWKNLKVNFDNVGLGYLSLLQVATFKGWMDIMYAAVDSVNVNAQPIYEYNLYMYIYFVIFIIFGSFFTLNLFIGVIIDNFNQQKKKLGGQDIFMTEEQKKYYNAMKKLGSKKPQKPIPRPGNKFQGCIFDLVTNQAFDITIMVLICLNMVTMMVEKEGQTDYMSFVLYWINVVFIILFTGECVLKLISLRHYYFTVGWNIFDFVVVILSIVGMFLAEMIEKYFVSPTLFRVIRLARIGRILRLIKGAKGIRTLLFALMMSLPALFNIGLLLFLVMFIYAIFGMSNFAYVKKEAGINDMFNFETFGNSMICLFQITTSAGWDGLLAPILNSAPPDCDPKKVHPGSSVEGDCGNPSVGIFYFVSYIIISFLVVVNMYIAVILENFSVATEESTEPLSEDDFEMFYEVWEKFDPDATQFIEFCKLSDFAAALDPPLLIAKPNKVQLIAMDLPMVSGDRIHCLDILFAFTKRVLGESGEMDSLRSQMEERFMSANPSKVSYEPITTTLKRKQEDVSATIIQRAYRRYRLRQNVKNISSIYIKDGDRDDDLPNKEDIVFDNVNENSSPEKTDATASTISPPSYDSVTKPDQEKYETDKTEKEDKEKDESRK

As for `Nc1n[nH]cc1-c1cc(C(F)(F)F)ccc1Oc1cc(F)c(S(=O)(=O)Nc2cscn2)cc1Cl` [PF-05198007, 4-(2-(3-amino-1H-pyrazol-4-yl)-4-(trifluoromethyl)phenoxy)-5-chloro-2-fluoro-N-(thiazol-4-yl)benzenesulfonamide], the “Capsaicin flare response, AUC” value in [1] (1 mg/kg oral) was found to be 1967 ± 472; in [1] (10 mg/kg oral) it was 2265 ± 382. The inhibition at 0.03 µM in [2] (read-out: Inhibition of Aδ-fiber evoked EPSC amplitude) amounted to 46.9 ± 5.4%; in assay [2] (read-out: Inhibition of C-fiber evoked EPSC amplitude), 53.7 ± 10.1%; in assay [2] (read-out: Inhibition of C-fiber evoked EPSCs), 87 ± 9%. The “Latency of inward current” value in assay [3] was “increased latency”. Besides, in assay [3], the “Peak amplitude of inward current” value is given as “decrease in the peak amplitude”. The “Block of total TTX-S current” value in assay [4] (30 nM, in presence of A-803467) was 83.0 ± 2.7%. For the same molecule, the Slope in assay [5] is reported as 0.7; in assay [9], 1.1. Also, in assay [6] (30 nM applied to the dorsal root only, p < 0.05), the “Latency of the C-fiber mediated EPSC” value is reported as “delay in the latency”. In addition, the “Neurons with action potential failure (complete block)” value in assay [7] (30 nM, cells blocked/cells tested) is listed as 6/13. The molecule also gave a Spike amplitude in [7] (control 43.0 ± 3.3 mV) of 37.7 ± 3.9 mV. Besides, in assay [7] (control 137 ± 19 mV/ms), the Upstroke slope is 86 ± 11 mV/ms. For the same molecule, in [7] (control -27.8 ± 2.0 mV), the Action potential threshold is listed as -22.8 ± 1.6 mV. Besides, the Action potential rheobase in [7] (in presence of compound, control 173 ± 37 pA) was 239 ± 47 pA. In addition, the “Action potential rheobase after washout” value in assay [7] (wash, control 173 ± 37 pA) worked out at 176 ± 35 pA. The “Effect on action potentials evoked by injection of depolarizing current” value in [8] is recorded as “no effects”. Further, the “Neurons with dorsal root evoked action potentials abolished” value in assay [8] is given as 8 out of 9. The “Veratridine evoked CGRP release” value in [10] (30 nM, p < 0.05) is “significantly reduced”; in [10] (100 nM, p < 0.05), “significantly reduced”.

As for `NC1=N[C@H](O)[C@H]2[C@H]3O[C@]4(O)O[C@@H]([C@@H](O)[C@@]2(N1)[C@@H]4O)[C@]3(O)CO` [TTX, tetrodotoxin], the “Effect on current remaining after A-803467” value in assay [4] was “abolished”. Further, in [6], the “Effect on Aδ and C fiber EPSCs” value is given as “completely abolished”.

As to `Cc1cccc(C)c1OCC(C)N` (centres unmarked) [mexiletine, reference compound], the “Veratridine evoked CGRP release” value in assay [10] is recorded as “significantly reduced”.

In the case of `NS(=O)(=O)c1cccc2c1c([N+](=O)[O-])cc1nc(O)c(O)nc12` [NBQX], in assay [6] (5 μM, data not shown), the “Effect on Aδ and C fiber EPSCs” value is recorded as “completely abolished”.

Consider `COc1cc(NC(=O)c2ccc(-c3ccc(Cl)cc3)o2)cc(OC)c1` [A-803467], for which, in assay [4] (1 μM, small diameter mDRG neurons), the “Block of total Na+ current” value is listed as 34.1 ± 3.0%.
